Measured values published in patent publication US10703764B2, “Benzopiperazine compositions as BET bromodomain inhibitors” (FORMA Therapeutics, Inc., priority 2013, dated 2020).

Key:
BRD4 BD1 = biological target: T1, BRD4 BD1 (Homo sapiens, UniProt O60885); assay: AlphaScreen binding assay, BRD4 Bromodomain 1
T1 construct: made in house
Method in brief: (§1)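 Compound dilution series were mixed with His-tagged BRD4 bromodomain and biotinylated tetra-acetylated H4 (1-21) peptide at pH 7.3 (BD1 and peptide at 50 nM, BD2 and peptide at 100 nM). Donor and acceptor beads were then added, and plates were equilibrated at least 1 h before reading. IC50 values were fitted with a four-parameter logistic model.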

BRD4 BD2 = biological target: T2, BRD4 BD2 (Homo sapiens, UniProt O60885); assay: AlphaScreen binding assay, BRD4 Bromodomain 2
T2 construct: made in house
Method in brief: as §1

MV4-11 cells = assay: Oncology cell growth assay (3-day proliferation, CellTiter-Glo); type: cell-based; settings: Homo sapiens, MV4-11, 72 h, AML cell line MV4-11, 72 hours, compounds grouped by IC50 range, read-out: MV4-11 IC50 (inhibition of proliferation, gIC50)
Method in brief: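 A 3-day proliferation test used MV4-11 cells seeded at 3000 per well with eight compound concentrations (10 μM top, 3-fold dilution) at 37° C in 5% CO2. CellTiter-Glo luminescence defined viable cell signal. A four-parameter logistic curve against DMSO and background wells gave the gIC50.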

Structure (SMILES)	IC50 (BRD4 BD1) [nM]	IC50 (BRD4 BD2) [nM]	IC50 (MV4-11 cells) [nM]
CC(=O)N1c2ccc(-c3cnn(Cc4ccccn4)c3)cc2N(C(=O)C2CC2)C[C@@H]1C [Example I-121, (S)-1-(4-(cyclopropanecarbonyl)-2-methyl-6-(1-(pyridin-2-ylmethyl)-1H-pyrazol-4-yl)-3,4-dihydroquinoxalin-1(2H)-yl)ethanone]	100 to 1000	< 50	100 to 500
CC(=O)N1c2ccc(-c3cnn(Cc4cccnc4)c3)cc2N(C(=O)C2CC2)C[C@@H]1C [Example I-122, (S)-1-(4-(cyclopropanecarbonyl)-2-methyl-6-(1-(pyridin-3-ylmethyl)-1H-pyrazol-4-yl)-3,4-dihydroquinoxalin-1(2H)-yl)ethan-1-one]	100 to 1000	< 50	100 to 500
CC(=O)N1c2ccc(-c3cnn(Cc4cnccn4)c3)cc2N(C(=O)C2CC2)C[C@@H]1C [Example I-123, (S)-1-(4-(cyclopropanecarbonyl)-2-methyl-6-(1-(pyrazin-2-ylmethyl)-1H-pyrazol-4-yl)-3,4-dihydroquinoxalin-1(2H)-yl)ethanone]	1000 to 10000	50 to 500	> 500
CC(=O)N1c2ccc(-c3cnn(CC4(C)COC4)c3)cc2N(C(=O)C2CC2)C[C@@H]1C [Example I-124, (S)-1-(4-(cyclopropanecarbonyl)-2-methyl-6-(1-((3-methyloxetan-3-yl)methyl)-1H-pyrazol-4-yl)-3,4-dihydroquinoxalin-1(2H)-yl)ethanone]	1000 to 10000	< 50	100 to 500
CC(=O)N1c2ccc(-c3cnn(Cc4ncccn4)c3)cc2N(C(=O)C2CC2)C[C@@H]1C [Example I-126, (S)-1-(4-(cyclopropanecarbonyl)-2-methyl-6-(1-(pyrimidin-2-ylmethyl)-1H-pyrazol-4-yl)-3,4-dihydroquinoxalin-1(2H)-yl)ethanone]	1000 to 10000	< 50	> 500
CC(=O)N1c2ccc(-c3cnn(Cc4c[nH]cn4)c3)cc2N(C(=O)C2CC2)C[C@@H]1C [Example I-127, (S)-1-(6-(1-((1H-imidazol-4-yl)methyl)-1H-pyrazol-4-yl)-4-(cyclopropanecarbonyl)-2-methyl-3,4-dihydroquinoxalin-1(2H)-yl)ethanone]	100 to 1000	< 50	> 500
CC(=O)N1c2ccc(-c3cnn(Cc4cncnc4)c3)cc2N(C(=O)C2CC2)C[C@@H]1C [Example I-128, (S)-1-(4-(cyclopropanecarbonyl)-2-methyl-6-(1-(pyrimidin-5-ylmethyl)-1H-pyrazol-4-yl)-3,4-dihydroquinoxalin-1(2H)-yl)ethanone]	1000 to 10000	< 50	100 to 500
CC(=O)N1c2ccc(-c3cnn(CCN(C)C)c3)cc2N(C(=O)OC(C)C)C[C@@H]1C [Example I-129, (S)-isopropyl 4-acetyl-7-(1-(2-(dimethylamino)ethyl)-1H-pyrazol-4-yl)-3-methyl-3,4-dihydroquinoxaline-1(2H)-carboxylate]	1000 to 10000	50 to 500	100 to 500
CC(=O)N1c2ccc(-c3cnn(CC(=O)O)c3)cc2N(C(=O)OC(C)C)C[C@@H]1C [Example I-130, (S)-2-(4-(1-acetyl-4-(isopropoxycarbonyl)-2-methyl-1,2,3,4-tetrahydroquinoxalin-6-yl)-1H-pyrazol-1-yl)acetic acid]	100 to 1000	50 to 500	> 500
CC(=O)N1c2ccc(-c3cnn(Cc4ccno4)c3)cc2N(C(=O)OC(C)C)C[C@@H]1C [Example I-131, (S)-isopropyl 4-acetyl-7-(1-(isoxazol-5-ylmethyl)-1H-pyrazol-4-yl)-3-methyl-3,4-dihydroquinoxaline-1(2H)-carboxylate]	100 to 1000	50 to 500	100 to 500
CC(=O)N1c2ccc(-c3cnn(CC4(F)COC4)c3)cc2N(C(=O)OC(C)C)C[C@@H]1C [Example I-133, (S)-isopropyl 4-acetyl-7-(1-((3-fluorooxetan-3-yl)methyl)-1H-pyrazol-4-yl)-3-methyl-3,4-dihydroquinoxaline-1(2H)-carboxylate]	100 to 1000	50 to 500	100 to 500
CNC(=O)Cn1cc(-c2ccc3c(c2)N(C(=O)OC(C)C)C[C@H](C)N3C(C)=O)cn1 [Example I-134, (S)-isopropyl 4-acetyl-3-methyl-7-(1-(2-(methylamino)-2-oxoethyl)-1H-pyrazol-4-yl)-3,4-dihydroquinoxaline-1(2H)-carboxylate]	100 to 1000	50 to 500	> 500
CC(=O)N1c2ccc(-c3cnn(CC(F)F)c3)cc2N(C(=O)OC(C)C)C[C@@H]1C [Example I-135, (S)-isopropyl 4-acetyl-7-(1-(2,2-difluoroethyl)-1H-pyrazol-4-yl)-3-methyl-3,4-dihydroquinoxaline-1(2H)-carboxylate]	100 to 1000	50 to 500	100 to 500
CC(=O)N1c2ccc(-c3cnn(CCCO)c3)cc2N(C(=O)OC(C)C)C[C@@H]1C [Example I-137, (S)-isopropyl 4-acetyl-7-(1-(3-hydroxypropyl)-1H-pyrazol-4-yl)-3-methyl-3,4-dihydroquinoxaline-1(2H)-carboxylate]	100 to 1000	50 to 500	100 to 500
CC(=O)N1c2ccc(-c3cnn(CCn4cncn4)c3)cc2N(C(=O)OC(C)C)C[C@@H]1C [Example I-139, (S)-isopropyl 7-(1-(2-(1H-1,2,4-triazol-1-yl)ethyl)-1H-pyrazol-4-yl)-4-acetyl-3-methyl-3,4-dihydroquinoxaline-1 (2H)-carboxylate]	100 to 1000	< 50	100 to 500
CC(=O)N1c2ccc(-c3cnn(CC(C)(C)F)c3)cc2N(C(=O)OC(C)C)C[C@@H]1C [Example I-140, (S)-isopropyl 4-acetyl-7-(1-(2-fluoro-2-methylpropyl)-1H-pyrazol-4-yl)-3-methyl-3,4-dihydroquinoxaline-1(2H)-carboxylate]	100 to 1000	50 to 500	100 to 500
CC(=O)N1c2ccc(-c3cnn(Cc4cc(C)no4)c3)cc2N(C(=O)OC(C)C)C[C@@H]1C [Example I-141, (S)-isopropyl 4-acetyl-3-methyl-7-(1-((3-methylisoxazol-5-yl)methyl)-1H-pyrazol-4-yl)-3,4-dihydroquinoxaline-1(2H)-carboxylate]	100 to 1000	< 50	100 to 500
CC(=O)N1c2ccc(-c3cnn(Cc4cncs4)c3)cc2N(C(=O)OC(C)C)C[C@@H]1C [Example I-143, (S)-isopropyl 4-acetyl-3-methyl-7-(1-(thiazol-5-ylmethyl)-1H-pyrazol-4-yl)-3,4-dihydroquinoxaline-1(2H)-carboxylate]	100 to 1000	50 to 500	100 to 500
CC(=O)N1c2ccc(-c3cnn(C4COC4)c3)cc2N(C(=O)OC(C)C)C[C@@H]1C [Example I-144, (S)-isopropyl 4-acetyl-3-methyl-7-(1-(oxetan-3-yl)-1H-pyrazol-4-yl)-3,4-dihydroquinoxaline-1(2H)-carboxylate]	< 100	< 50	100 to 500
CC(=O)N1c2ccc(-c3cnn(CC(C)(C)F)c3)cc2N(C(=O)C2CC2)C[C@@H]1C [Example I-145, (S)-1-(4-(cyclopropanecarbonyl)-6-(1-(2-fluoro-2-methylpropyl)-1H-pyrazol-4-yl)-2-methyl-3,4-dihydroquinoxalin-1 (2H)-yl)ethanone]	100 to 1000	50 to 500	> 500
CC(=O)N1c2ccc(-c3cnn(CCN(C)C)c3)cc2N(C(=O)C2CC2)C[C@@H]1C [Example I-146, (S)-1-(4-(cyclopropanecarbonyl)-6-(1-(2-(dimethylamino)ethyl)-1H-pyrazol-4-yl)-2-methyl-3,4-dihydroquinoxalin-1 (2H)-yl)ethanone]	1000 to 10000	50 to 500	> 500
CC(=O)N1c2ccc(-c3cnn(Cc4nonc4C)c3)cc2N(C(=O)C2CC2)C[C@@H]1C [Example I-147, (S)-1-(4-(cyclopropanecarbonyl)-2-methyl-6-(1-((4-methyl-1,2,5-oxadiazol-3-yl)methyl)-1H-pyrazol-4-yl)-3,4-dihydroquinoxalin-1 (2H)-yl)ethanone]	100 to 1000	50 to 500	100 to 500
CC(=O)N1c2ccc(-c3cnn(CC4CC4(F)F)c3)cc2N(C(=O)C2CC2)C[C@@H]1C (stereo partly drawn) [Example I-148, 1-((S)-4-(cyclopropanecarbonyl)-6-(1-((2,2-difluorocyclopropyl)methyl)-1H-pyrazol-4-yl)-2-methyl-3,4-dihydroquinoxalin-1(2H)-yl)ethanone]	100 to 1000	50 to 500	100 to 500
CC(=O)N1c2ccc(-c3cnn(Cc4cc(C)no4)c3)cc2N(C(=O)C2CC2)C[C@@H]1C [Example I-149, (S)-1-(4-(cyclopropanecarbonyl)-2-methyl-6-(1-((3-methylisoxazol-5-yl)methyl)-1H-pyrazol-4-yl)-3,4-dihydroquinoxalin-1 (2H)-yl)ethanone]	100 to 1000	50 to 500	100 to 500
CC(=O)N1c2ccc(-c3cnn(CCC(F)(F)F)c3)cc2N(C(=O)C2CC2)C[C@@H]1C [Example I-150, (S)-1-(4-(cyclopropanecarbonyl)-2-methyl-6-(1-(3,3,3-trifluoropropyl)-1H-pyrazol-4-yl)-3,4-dihydroquinoxalin-1(2H)-yl)ethanone]	100 to 1000	< 50	> 500
